According to patent US8216783B2, “Over-expression and mutation of a tyrosine kinase receptor FGFR4 in tumors” (The United States of America, as represented by the …, priority 2008, dated 2012):
Entries after “also recorded” stand apart in the source; their conditions may differ. Read-outs that look alike come from different tables or passages of the source.

What was measured:
RH30 TRB H11.5 cells = experiment: In vitro growth of RH30 TRB H11.5 cells with or without dox; format: cell-based, human; conditions: RH30 TRB H11.5, 25 nM dox, 13 days, P=0.0021
Description: FIG. 13B is a plot of RH30 TRB H11.5 cell growth with or without 25 nM dox for 120 hours.
FIG. 13C is a plot of RH30TRB H11.5 cell number 13 days after treatment with or without 25 nM dox.
Human rhabdomyosarcoma cell line RH30 was retrovirally transduced with vectors containing tetracycline repressor protein and ecotropic receptor. A tetracycline inducible shRNA construct targeting FGFR4 ([…], SEQ ID NO: 44) was used to transduce these RH30 cells as described previously (Ngo et al. Nature 441:106-110, 2006). Transduced RH30 cells were then subcloned. The subclone with the highest FGFR4 knockdown in the presence of doxycycline (dox) was used for in vitro and in vivo studies. The subclone chosen was designated as RH30 TRB H11.5 and was further transduced with a retroviral vector encoding luciferase. RH30 TRB H11.5 cells treated with or without 25 ng/ml doxycycline for 48 hours were harvested for Western blot for FGFR4 expression.

RD = experiment: IC50 of PD173074 for killing human RMS cell lines (RT-CES cell growth monitoring); format: cell-based; conditions: RD cell line
Description: (§1) Briefly human RMS cell lines were seeded in the 96 well plate device at 5000-20,000 cells per well. […] Cell growth was monitored and IC50 values were calculated by Cell Office® (ACEA Biosciences, San Diego, Calif.).
(§2) Expression level of FGFR4 mRNA for each cell line was determined by real-time PCR (FIG. 10).

RH28 = experiment: as above; format: cell-based; conditions: RH28 cell line
Description: as §1, §2

RH30 = experiment: as above; format: cell-based; conditions: RH30 cell line
Description: as §1, §2

RH36 = experiment: as above; format: cell-based; conditions: RH36 cell line
Description: as §1, §2

RH41 = experiment: as above; format: cell-based; conditions: RH41 cell line
Description: as §1, §2

[1] = system: RMS772 cells expressing vector only; experiment: Percent cell survival of transduced RMS772 cell lines with PD173074; format: cell-based; conditions: Mus musculus; RMS772 vector control, 48 hours of treatment
[2] = system: RMS772 cells expressing wild type FGFR4; experiment: as above; format: cell-based; conditions: Mus musculus; RMS772 wild type FGFR4, 48 hours of treatment
[3] = system: RMS772 cells expressing FGFR4 N535K (K535); experiment: as above; format: cell-based; conditions: Mus musculus; RMS772 K535, 48 hours of treatment
[4] = system: RMS772 cells expressing FGFR4 V550E (E550); experiment: as above; format: cell-based; conditions: Mus musculus; RMS772 E550, 48 hours of treatment
[5] = system: RMS119 cells expressing FGFR4 N535K or V550E; experiment: Cell cycle assay (BrdU/7-AAD flow cytometry), apoptosis as subG1 fraction; format: cell-based, mouse; conditions: 5 uM for 24 hours
Description: (§3) The effect of […] in RMS119 and RMS772 transfectants was determined using cell cycle assays. […] Cells were then pulsed with BrdU for 40 minutes, and then fixed, permeabilized, and treated with DNase, and followed by staining with mAb (BD Biosciences, Franklin Lakes, N.J.) against BrdU and with 7-AAD (BD Biosciences, Franklin Lakes, N.J.) respectively. Flow cytometry was used to analyze the cell cycle parameters.
(§4) Apoptosis was assessed by determining the fraction of cells in the subG1 stage of the cell cycle. There were no differences in cell cycle parameters of RMS772 cells expressing TK domain mutants cultured in medium containing 10% FBS compared to vector or wild type FGFR4 (FIG. 9A).

[6] = system: RMS772 cells expressing FGFR4 TK domain mutations N535K or V550E; experiment: as above; format: cell-based, mouse; conditions: 5 uM for 24 hours
Description: as §3, §4

[7] = system: RMS772 cells expressing FGFR4 N535K (K535) or V550E (E550); experiment: Activated caspase 3 positive cells in RMS772 transductants; format: cell-based, mouse; conditions: both mutant RMS772 cell lines, 20 μM, 24 hour treatment
[8] = system: RMS772 cells expressing FGFR4 N535K or V550E; experiment: Relative cell number of RMS772 transductants treated with imatinib; format: cell-based, mouse; conditions: 10 μM, 24 hours
Description: To determine the sensitivity of FGFR4 mutants (N535K and V550E) to imatinib, RMS772 transductants were treated with imatinib (ranging from 0 μM to 40 μM). After 24 hours, relative cell number (normalized with control) was plotted against imatinib dose.

[9] = 24 hours, read-out: IC50 for killing, 24 hours
[10] = 48 hours, read-out: IC50 for killing, 48 hours
[11] = 72 hours, read-out: IC50 for killing, 72 hours

For `C[C@H]1c2cccc(O)c2C(=O)C2=C(O)[C@]3(O)C(=O)C(C(N)=O)=C(O)[C@@H](N(C)C)[C@@H]3[C@@H](O)[C@@H]21` [dox, doxycycline], the “reduction in growth after prolonged culture” value (RH30 TRB H11.5 cells) was 41%.
`CCN(CC)CCCCNc1ncc2cc(-c3cc(OC)cc(OC)c3)c(NC(=O)NC(C)(C)C)nc2n1` [PD173074] was tested, and the IC50 (RD; [9]) was 57.1 µM, the IC50 (RD; [10]) was 29.7 µM and the IC50 (RD; [11]) was 20.2 µM. It also gave an IC50 (RH28; [9]) of 2.22 µM, an IC50 (RH28; [10]) of 0.66 µM and an IC50 (RH28; [11]) of 0.5 µM. It also gave an IC50 (RH30; [9]) of 10 µM, an IC50 (RH30; [10]) of 8.32 µM and an IC50 (RH30; [11]) of 8.11 µM. The IC50 (RH36; [9]) was 25.9 µM, the IC50 (RH36; [10]) was 17.6 µM and the IC50 (RH36; [11]) was 20.2 µM. It also gave an IC50 (RH41; [9]) of 2.55 µM, an IC50 (RH41; [10]) of 0.96 µM and an IC50 (RH41; [11]) of 0.76 µM. For the same molecule, the IC50 [1] was 12.7 µM, the IC50 [2] was 11.8 µM and the IC50 [3] was 8.2 µM. For the same molecule, the IC50 [4] was 5.9 µM, the “apoptosis / cell cycle effect of treatment” value [5] was “not affected” and the “apoptosis (SubG1 fraction) compared with cells transfected with vector or wild type FGFR4” value [6] was “increase in apoptosis; also recorded: increased SubG1 fraction”. The “activated caspase 3 (cells positive, normalized to vector only)” value [7] was “increased activated caspase 3”.
In the case of `Cc1ccc(NC(=O)c2ccc(CN3CCN(C)CC3)cc2)cc1Nc1nccc(-c2cccnc2)n1` [imatinib, 4-[(4-methylpiperazin-1-yl)methyl]-N-[4-methyl-3-[(4-pyridin-3-ylpyrimidin-2-yl)amino]-phenyl]-benzamide], the “sensitivity (relative cell number) of FGFR4 mutants versus wild type FGFR4 or control cells” value [8] is reported as “more sensitive”.
